Results taken from patent US3962317A, “D-3,6-Diaminohexanoic acid 2-(carboxymethyl)-2-methylhydrazide, process of preparing and intermediates of said process” (priority 1974, dated 1976).
In brackets after ≈: the same amount, converted by molar mass.

Columns and labels:
Escherichia coli 311 [1] = test: Systemic lethal infection in mice, Escherichia coli 311; format: in vivo, Charles River CD1 female mice; settings: for Alive/Total Mice Tested 7 Days After Infection: immediately after infection
Experimental: (§1) The infections were administered to the mice as follows:
Escherichia coli 311: intraperitoneal infection of a lethal dose consisting of 0.5 ml. of a 10^^-3 trypticase soy dilution of a 5 hour trypticase soy broth culture.
(§2) The D-3,6-diaminohexanoic acid 2-(carboxymethyl)-2-methylhydrazide was administered as follows:
Escherichia coli 311: 0.5 ml. dose suspended in 0.2% aqueous agar was administered to groups of Charles River CD1 female mice, weighing 18-22 gm., immediately after infection at the levels indicated in Table III below.

Escherichia coli 311 [2] = test: Zone of inhibition, standard agar well diffusion assay; format: cell-based
Experimental: (§3) In this assay, the minimal inhibitory concentration (MIC) was determined by using twofold dilutions of the compound in nutrient agar. One ml. of each dilution was placed in a sterile Petri dish; 9 ml. of nutrient agar was added to each dish. Five hour cultures of the indicated organism in Trypticase Soy Broth were diluted 10^^-2 in nutrient broth. This dilution of each culture was transferred to the surface of the plates by using a Steers replicating device. […] The MIC of D-3,6-diaminohexanoic acid 2-(carboxymethyl)-2 -methylhydrazide against the indicated organisms are set forth in Table I below.
(§4) In another representative operation, the standard agar well diffusion assay was repeated with D-3,6-diaminohexanoic acid 2-(carboxymethyl)-2-methylhydrazide except that after incubation the zone of inhibition against the indicated organism is millimeters was determined.

[3] = tested on: Trichophyton mentagrophytes E11; test: as above; format: cell-based
Experimental: as §3, §4

[4] = tested on: Cryptococcus neoformans E 183; test: as above; format: cell-based
Experimental: as §3, §4

Klebsiella pneumoniae AD [5] = test: as above; format: cell-based
Experimental: as §3, §4

[6] = tested on: Mycobacterium smegmatis ATCC 606; test: as above; format: cell-based
Experimental: as §3, §4

[7] = tested on: Salmonella typhosa ATCC 6539; test: as above; format: cell-based
Experimental: as §3, §4

[8] = tested on: Enterobacter aerogenes 75; test: as above; format: cell-based
Experimental: as §3, §4

Candida albicans E 83 = test: as above; format: cell-based
Experimental: as §3, §4

[9] = tested on: Microsporum canis ATCC 10214; test: as above; format: cell-based
Experimental: as §3, §4

[10] = tested on: Proteus vulgaris ATCC 9484; test: as above; format: cell-based
Experimental: as §3, §4

[11] = tested on: Trichophyton tonsurans NIH 662; test: as above; format: cell-based
Experimental: as §3, §4

[12] = tested on: Staphylococcus aureus Rose ATCC 14154; test: as above; format: cell-based
Experimental: as §3, §4

[13] = tested on: Pseudomonas aeruginosa ATCC 10145; test: as above; format: cell-based
Experimental: as §3, §4

Proteus mirabilis 4671 = test: Systemic lethal infection in mice, Proteus mirabilis 4671; format: in vivo, Charles River CD1 female mice; settings: for Alive/Total Mice Tested 7 Days After Infection: 1 day prior to and immediately after infection
Experimental: as §1
Proteus mirabilis 4671: intraperitoneal injection of a lethal dose consisting of 0.5 ml. of a 10^^-1.6 trypticase soy dilution of a 5 hour trypticase soy broth culture.
as §2
Proteus mirabilis 4671: 0.5 ml. dose suspended in 0.2% aqueous agar was administered to groups of Charles River CD1 female mice, weighing 18-22 gm., 1 day prior to infection and then in a second dose immediately after infection at the levels indicated in Table III below.

[14] = tested on: standard laboratory microorganisms; test: Standard agar well diffusion assay against a variety of standard laboratory microorganisms; format: cell-based
[15] = tested on: Herellea vaginicola Hughes; test: MIC, agar dilution (called standard agar well diffusion assay); format: cell-based; settings: nutrient agar, 37°C, 24 hours
Experimental: as §3

[16] = tested on: Staphylococcus aureus Jackson No. 4; test: as above; format: cell-based; settings: nutrient agar, 37°C, 24 hours
Experimental: as §3

[17] = tested on: Salmonella enteritidis K-1972; test: as above; format: cell-based; settings: Salmonella enterica, nutrient agar, 37°C, 24 hours
Experimental: as §3

[18] = tested on: Proteus mirabilis K-1972-12; test: as above; format: cell-based; settings: K197212, nutrient agar, 37°C, 24 hours
Experimental: as §3

[19] = tested on: Klebsiella pneumoniae K-1972-2; test: as above; format: cell-based; settings: K19722, nutrient agar, 37°C, 24 hours
Experimental: as §3

Escherichia coli No. 311 = test: as above; format: cell-based; settings: nutrient agar, 37°C, 24 hours
Experimental: as §3

Klebsiella pneumoniae AD [20] = test: as above; format: cell-based; settings: nutrient agar, 37°C, 24 hours
Experimental: as §3

[21] = tested on: Staphylococcus aureus Morton No. 1169; test: as above; format: cell-based; settings: nutrient agar, 37°C, 24 hours
Experimental: as §3

[22] = tested on: Salmonella typhimurium K-1972; test: as above; format: cell-based; settings: Salmonella enterica, nutrient agar, 37°C, 24 hours
Experimental: as §3

[23] = tested on: Proteus mirabilis No. 4361; test: as above; format: cell-based; settings: nutrient agar, 37°C, 24 hours
Experimental: as §3

[24] = tested on: Enterobacter sp. K-1972-1; test: as above; format: cell-based; settings: SP.K19721, nutrient agar, 37°C, 24 hours
Experimental: as §3

[25] = tested on: Escherichia coli K-1972-1; test: as above; format: cell-based; settings: K19721, nutrient agar, 37°C, 24 hours
Experimental: as §3

[26] = tested on: Pseudomonas aeruginosa 12-4-4; test: as above; format: cell-based; settings: 1244, nutrient agar, 37°C, 24 hours
Experimental: as §3

Proteus vulgaris K-1972 = test: as above; format: cell-based; settings: K1972, nutrient agar, 37°C, 24 hours
Experimental: as §3

[27] = tested on: Enterococcus (S. faecalis) Isenberg; test: as above; format: cell-based; settings: nutrient agar, 37°C, 24 hours
Experimental: as §3

[28] = tested on: Pseudomonas aeruginosa PA7; test: as above; format: cell-based; settings: nutrient agar, 37°C, 24 hours
Experimental: as §3

[29] = tested on: Shigella flexneri (2a) RB; test: as above; format: cell-based; settings: nutrient agar, 37°C, 24 hours
Experimental: as §3

[30] = tested on: Proteus mirabilis K-1972-16; test: as above; format: cell-based; settings: K197216, nutrient agar, 37°C, 24 hours
Experimental: as §3

Serratia marcescens K132 = test: as above; format: cell-based; settings: nutrient agar, 37°C, 24 hours
Experimental: as §3

[31] = tested on: Serratia marcescens Finland; test: as above; format: cell-based; settings: nutrient agar, 37°C, 24 hours
Experimental: as §3

[32] = tested on: Herellea vaginicola Washington 885-863; test: as above; format: cell-based; settings: nutrient agar, 37°C, 24 hours
Experimental: as §3

[33] = tested on: Escherichia coli K-1972-2; test: as above; format: cell-based; settings: K19722, nutrient agar, 37°C, 24 hours
Experimental: as §3

[34] = tested on: Shigella flexneri (5) Citarella; test: as above; format: cell-based; settings: nutrient agar, 37°C, 24 hours
Experimental: as §3

CN(CC(=O)O)NC(=O)C[C@H](N)CCCN [D-3,6-diaminohexanoic acid 2-(carboxymethyl)-2-methylhydrazide]
Alive/Total Mice Tested 7 Days After Infection (Escherichia coli 311 [1]; 4 mg./kg. subcutaneous): 0/5
Alive/Total Mice Tested 7 Days After Infection (Escherichia coli 311 [1]; 8 mg./kg. subcutaneous): 0/5
Alive/Total Mice Tested 7 Days After Infection (Escherichia coli 311 [1]; 16 mg./kg. subcutaneous): 0/5
Alive/Total Mice Tested 7 Days After Infection (Escherichia coli 311 [1]; 32 mg./kg. subcutaneous): 3/5
Alive/Total Mice Tested 7 Days After Infection (Escherichia coli 311 [1]; 64 mg./kg. subcutaneous): 5/5
in vivo activity against systemic lethal infection (Escherichia coli 311 [1]; Escherichia coli infection in mice): controlled systemic lethal infections
Zone of Inhibition (Escherichia coli 311 [2]): 25 mm.
Zone of Inhibition [3]: 100 mm.
Zone of Inhibition [4]: 10 mm.
Zone of Inhibition (Klebsiella pneumoniae AD [5]): 10 mm.
Zone of Inhibition [6]: 100 mm.
Zone of Inhibition [7]: 25 mm.
Zone of Inhibition [8]: 50 mm.
Zone of Inhibition (Candida albicans E 83): 50 mm.
Zone of Inhibition [9]: 250 mm.
Zone of Inhibition [10]: 25 mm.
Zone of Inhibition [11]: 25 mm.
Zone of Inhibition [12]: 100 mm.
Zone of Inhibition [13]: 50 mm.
Alive/Total Mice Tested 7 Days After Infection (Proteus mirabilis 4671; 64 mg./kg. subcutaneous): 5/5
Alive/Total Mice Tested 7 Days After Infection (Proteus mirabilis 4671; 128 mg./kg. subcutaneous): 5/5
Alive/Total Mice Tested 7 Days After Infection (Proteus mirabilis 4671; 256 mg./kg. subcutaneous): 5/5
in vivo activity against systemic lethal infection (Proteus mirabilis 4671; Proteus mirabilis infection in mice): controlled systemic lethal infections
antibacterial and antifungal activity in vitro [14]: broad-spectrum antibacterial and antifungal activity in vitro
MIC [15]: 32 µg/mL (≈ 138 µM)
MIC [16]: 64 µg/mL (≈ 276 µM)
MIC [17]: 32 µg/mL (≈ 138 µM)
MIC [18]: 64 µg/mL (≈ 276 µM)
MIC [19]: 32 µg/mL (≈ 138 µM)
MIC (Escherichia coli No. 311): 16 µg/mL (≈ 68.9 µM)
MIC (Klebsiella pneumoniae AD [20]): 4 µg/mL (≈ 17.2 µM)
MIC [21]: 32 µg/mL (≈ 138 µM)
MIC [22]: 32 µg/mL (≈ 138 µM)
MIC [23]: 64 µg/mL (≈ 276 µM)
MIC [24]: 32 µg/mL (≈ 138 µM)
MIC [25]: 16 µg/mL (≈ 68.9 µM)
MIC [26]: 64 µg/mL (≈ 276 µM)
MIC (Proteus vulgaris K-1972): 64 µg/mL (≈ 276 µM)
MIC [27]: > 128 µg/mL
MIC [28]: 64 µg/mL (≈ 276 µM)
MIC [29]: 4 µg/mL (≈ 17.2 µM)
MIC [30]: 64 µg/mL (≈ 276 µM)
MIC (Serratia marcescens K132): 32 µg/mL (≈ 138 µM)
MIC [31]: 64 µg/mL (≈ 276 µM)
MIC [32]: 32 µg/mL (≈ 138 µM)
MIC [33]: 16 µg/mL (≈ 68.9 µM)
MIC [34]: 64 µg/mL (≈ 276 µM)
